These results are taken from patent US20050222134A1, “Crystalline forms of 5, 11-dihydro-11-ethyl-5-methyl-8-{2-{(1-oxido-4-quinolinyl)oxy}ethyl}-6H-dipyrido[3,2-b:2',3'-e] [1,4]diazepin-6-one” (Boehringer Ingelheim International GmbH, priority 2004, published 2005).

The term melting point denotes the temperature of the solid-liquid transition.

Data set [1] in a line: Solubility experiments used to determine the phase diagram of the crystalline forms. It is filed as physicochemical. The conditions noted are these: 25° C.; for water content of ethanol solution in contact with which the form is thermodynamically favored over the other forms: ethanol solutions saturated with the compound, compared with the dihydrate, anhydrous Form I and Form III. Here is the method:
Solubility experiments were used to determine the unique phase diagram shown in FIG. 5 for the various forms of 5,11-dihydro-11-ethyl-5-methyl-8-{2-{(1-oxido-4-quinolinyl)oxy}ethyl}-6H-dipyrido[3,2-b:2′,3′-e][1,4]diazepin-6-one. […] Additionally, anhydrous Form III is thermodynamically favored over the dihydrate and anhydrous Form I at 25° C. when in contact with ethanol solutions containing<˜2.7±0.5 wt % water.

Data set [2] is described as follows: Biological testing of plasma levels of crystalline forms. The format is in vivo. The settings on record: compared with other crystalline forms of the drug. The text has this:
(§1) We have further discovered that under proper conditions several anhydrous polymorphs of 5,11-dihydro-11-ethyl-5-methyl-8-{2-{(1-oxido-4-quinolinyl)oxy} ethyl}-6H-dipyrido[3,2-b:2′,3′-e][1,4]diazepin-6-one may be formed. […] Thus, the invention further includes anhydrous Form III of 5,11-dihydro-11-ethyl-5-methyl-8-{2-{(1-oxido-4-quinolinyl)oxy}ethyl}-6H-dipyrido[3,2-b:2′,3′-e][1,4]diazepin-6-one and methods for its manufacture.

A short description of data set [3]: Phase stability of crystalline forms at ambient / storage conditions. The format is physicochemical.
Excerpt: A first aspect of the present invention comprises the discovery of a dihydrate crystalline form of 5,11-dihydro-11-ethyl-5-methyl-8-{2-{(1-oxido-4-quinolinyl)oxy}ethyl}-6H-dipyrido[3,2-b:2′,3′-e][1,4]diazepin-6-one. […] The invention also comprises methods for making this dihydrate crystalline form.
as §1

`CCN1c2ncc(CCOc3cc[n+]([O-])c4ccccc34)cc2C(=O)N(C)c2cccnc21` (hydrate or solvate) [dihydrate, 5,11-dihydro-11-ethyl-5-methyl-8-{2-{(1-oxido-4-quinolinyl)oxy}ethyl}-6H-dipyrido[3,2-b:2′,3′-e][1,4]diazepin-6-one dihydrate] displayed a melting point of 199 °C.
On to `CCN1c2ncc(CCOc3cc[n+]([O-])c4ccccc34)cc2C(=O)N(C)c2cccnc21` [anhydrous Form III, 5,11-dihydro-11-ethyl-5-methyl-8-{2-{(1-oxido-4-quinolinyl)oxy}ethyl}-6H-dipyrido[3,2-b:2′,3′-e][1,4]diazepin-6-one Anhydrous Form III], for which the melting point came to 198.2 °C. Moreover, in data set [1], the “thermodynamic preference between crystalline forms (phase diagram)” value is on record as “thermodynamically preferred over anhydrous Form I” and the “water content of ethanol solution in contact with which the form is thermodynamically favored over the other forms” value is listed as under 2.7±0.5 wt % water. Also, the plasma levels entry in data set [2] is “higher plasma levels than are attainable using other crystalline forms”. In addition, in data set [3] (some tested ambient conditions), the phase stability result is recorded as “demonstrated phase stability”.
In the case of `CCN1c2ncc(CCOc3cc[n+]([O-])c4ccccc34)cc2C(=O)N(C)c2cccnc21` [dihydrate, 5,11-dihydro-11-ethyl-5-methyl-8-{2-{(1-oxido-4-quinolinyl)oxy}ethyl}-6H-dipyrido[3,2-b:2′,3′-e][1,4]diazepin-6-one dihydrate], the “water content of ethanol solution in contact with which the form is thermodynamically favored over the other forms” value in data set [1] (dihydrate) is over 2.7 wt % water. In data set [3] (temperatures and humidities most likely encountered on storage of drug substance or drug product, compared with the trihydrate), the “thermodynamic or kinetic preference on storage” value is reported as “thermodynamically or kinetically favored”.
